Laboratory results published in PubChem BioAssay (NCI).
Several values for one entry are separate records, joined by “and”; a condition that tells them apart may be missing. Equal entries are not always repeated.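 These data come from cells grown in 96-well plates and exposed to compound for 48 hours at five concentrations. At the GI50, growth is halved. At the TGI there is no net growth.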

Tests used:
Experiment in all cases: NCI anticancer screen, dose series, 48 h
[1] = test system: A549 NSCLC
[2] = test system: DLD-1 colon
[3] = test system: HCT-116 colon
[4] = test system: HL-60(TB) leukemia
[5] = test system: KM12 colon
[6] = test system: LXFL 529 NSCLC
[7] = test system: NCI-H460 lung
[8] = test system: RPMI-8226 leukemia
[9] = test system: RXF 393 renal
[10] = test system: SK-MEL-28 melanoma

Row | SMILES | TGI [1] | TGI [2] | TGI [3] | TGI [4] | TGI [5] | TGI [6] | TGI [7] | TGI [8] | TGI [9] | TGI [10] | GI50 [1] | GI50 [2] | GI50 [3] | GI50 [4] | GI50 [5] | GI50 [6] | GI50 [7] | GI50 [8] | GI50 [9] | GI50 [10]
1 | CC1=C(c2cc(C(=O)Nc3ccc(Cl)c(Cl)c3)nc(N)n2)Sc2ccccc2N1 | > 100 µM | > 100 µM | > 100 µM | > 100 µM | > 100 µM | > 100 µM | > 100 µM | > 100 µM | > 100 µM | > 100 µM | – | – | – | – | – | – | – | – | – | –
2 | C[C@H]1CC(=O)C2=CCCC3(SCCCS3)[C@@H]2[C@H]1CO | > 100 µM | > 100 µM | > 100 µM | > 100 µM | > 100 µM | > 100 µM | > 100 µM | > 100 µM | > 100 µM | > 100 µM | – | – | – | – | – | – | – | – | – | –
3 | O=C(O)C1CCCCN1C(=O)c1ccccc1 (stereo not given) | > 100 µM | > 100 µM | > 100 µM | > 100 µM | > 100 µM | > 100 µM | > 100 µM | > 100 µM | > 100 µM | > 100 µM | – | – | – | – | – | – | – | – | – | –
4 | CCN(CC)C(=S)SC1CCOP(=O)(N(CCCl)CCCl)N1C (stereo not given) | > 100 µM | 21.3 µM | > 48.5 µM | 32.2 µM | > 58.5 µM | 19.3 µM | 14.3 µM | > 61.2 µM | 76.1 µM | 42.2 µM | – | – | – | – | – | – | – | – | – | –
5 | CC[O-].Cc1ccc2cccc([O-])c2n1.Cc1ccc2cccc([O-])c2n1.Cc1ccc2cccc([O-])c2n1.[Ti+4] | 20.6 µM | > 81 µM | > 100 µM | 16 µM | 74.8 µM | > 49.3 µM | > 100 µM | 49.5 µM | 70.9 µM | > 100 µM | 11.1 µM | 28.9 µM | 33.8 µM | 3.3 µM | 20.9 µM | 24.8 µM | 20.2 µM | 11.5 µM | 30.9 µM | > 65.2 µM
6 | CN(c1ccccc1)C1C(=O)N(c2ccccc2)C1/C=C/c1ccccc1 (stereo not given) | > 100 µM | > 100 µM | > 100 µM | > 100 µM | > 100 µM | > 100 µM | > 100 µM | > 100 µM | > 100 µM | > 100 µM | – | – | – | – | – | – | – | – | – | –
7 | O=C(Nc1ccccc1Br)c1cccc([N+](=O)[O-])c1O | > 100 µM | > 100 µM | 14.8 µM | 12.9 µM | 19.3 µM | 22.1 µM | > 37.9 µM | 6.27 µM | 6.71 µM | 59.9 µM | – | – | – | – | – | – | – | – | – | –
8 | COc1cc([C@@H]2c3cc4c(cc3[C@H](O)[C@H]3COC(=O)[C@H]23)OCO4)cc(OC)c1OC | > 100 µM and 50 µM | > 100 µM | 0.5 µM | < 0.005 µM | – | > 100 µM | > 100 µM and 50 µM and > 7.95 µM | – | – | > 100 µM and 50 µM | < 0.005 µM | – | < 0.01 µM | < 0.01 µM | < 0.01 µM | – | < 0.005 µM | < 0.01 µM | < 0.01 µM | < 0.01 µM
9 | O=C1/C(=C/c2ccccc2)CCC/C1=C\c1ccccc1 | 17.8 µM and 45.7 µM and 42.5 µM | 8.83 µM | 5.86 µM and 3.09 µM and 3.33 µM | 36.5 µM and > 53 µM and 90 µM | 7.81 µM and 5.54 µM and 4.26 µM | 15.8 µM | 12 µM and 34 µM and 46.8 µM | 36.5 µM and > 20.1 µM and 5.89 µM | 13.4 µM and 32.3 µM and 17.8 µM | 12.3 µM and 32.7 µM and 38.2 µM | 7.66 µM and 17.5 µM | – | – | 10.4 µM and 26.1 µM | 3.54 µM and 2.11 µM | – | 6.09 µM and 19.8 µM | 2.89 µM and 2.23 µM | 7.73 µM and 4.27 µM | 6.84 µM and 18.9 µM
10 | CC(C)(C)[Si](C)(C)O/N=C\c1ccc(O[Si](C)(C)C(C)(C)C)cc1 | > 100 µM | > 100 µM | 63 µM | > 100 µM | > 100 µM | > 100 µM | > 100 µM | > 100 µM | 63.7 µM | – | – | – | – | – | – | – | – | – | – | –
11 | C/C(=N/NC(=O)C(N)=O)C(CC(C(=O)Nc1ccccc1C)/C(C)=N\NC(=O)C(N)=O)C(=O)Nc1ccccc1C (stereo not given) | > 100 µM | > 100 µM | – | > 100 µM | > 100 µM | > 100 µM | > 100 µM | > 100 µM | > 100 µM | > 100 µM | – | – | – | – | – | – | – | – | – | –
